Holding throughout (assay type): physicochemical
Series [1] is described as follows: The octanol-water partition coefficient at pH 9.4.
Series [2] can be described thus: The octanol-water partition coefficient at pH 10.0.
Series [3] in a line: The octanol-water partition coefficient at pH 6.4.
Series [4] in a line: The octanol-water partition coefficient at pH 7.0.
Series [5] is described as follows: The octanol-water partition coefficient at pH 7.5.
A short description of series [6]: The octanol-water partition coefficient at pH 4.5.
Series [7] in a line: The octanol-water partition coefficient at pH 3.3.
Series [8] in a line: The octanol-water partition coefficient at pH 10.8.
Series [9] is described as follows: The octanol-water partition coefficient at pH 5.8.
The nature of series [10]: The octanol-water partition coefficient at pH 8.3.

This note sets out measurements from ChEMBL document CHEMBL1127345, “Synthesis, binding properties, and 18F labeling of fluorocarazolol, a high-affinity beta-adrenergic receptor antagonist” (J Med Chem, 1994).

Structures are written as SMILES.

For `CC(C)NCC(O)COc1cccc2[nH]c3ccccc3c12` (stereo not given) [CARAZOLOL], the logD (as a rule, lipophilicity at a set pH, counting ionised and neutral species) is 2.44 in [1]; 2.5 in series [2]; 0.68 in [3]; 1.07 in [4]; 1.51 in [5]; 0.3 in [6]. Besides, the logD in series [7] stood at 0.17; in series [8], 2.43; in series [9], 0.42; in [10], 2.13.

For the compound `CC(CF)NCC(O)COc1cccc2[nH]c3ccccc3c12` (stereo not given) [FLUOROCARAZOLOL], the logD in series [1] turned out to be 2.8; in [2], 2.81; in series [3], 1.76; in series [4], 2.2; in series [5], 2.48; in series [6], 0.38. The log distribution coefficient (logD) is 0.03 in series [7], 2.81 in series [8], 1.11 in [9] and 2.7 in series [10].
